Assay results reported in patent publication US4731373A, “Glycerin derivatives and inhibition of blood PAF” (Hoffman-La Roche Inc., priority 1983, dated 1988).

System: blood platelet activating factor (PAF)
Assay: Inhibition of PAF-induced platelet aggregation in platelet-rich plasma (aggregometer)
Format: cell-based
Conditions: rabbit platelet-rich plasma, 37° C., stirring; test substance added 2 minutes before PAF (4 nM, sub-maximum dosage); read-out: IC50 (concentration of the test substance which reduces to a half the aggregation of the blood platelets brought about by PAF)
Description: The aggregation of the blood platelets was measured with the aid of an aggregometer at 37° C. while stirring. […] The IC50 value (in μM) given in the following Table corresponds to that concentration of the test substance which reduces to a half the aggregation of the blood platelets brought about by PAF.

| Compound | IC50 [nM] |
| --- | --- |
| 1-[3-[[[(RS)-2-(1-methoxyformamido)-3-(octadecyloxy)propoxy]carbonyl]oxy]propyl]pyridinium chloride [Example 16] | 1500 |
| CCCCCCCCCCCCCCCCCCNC(=O)OCC(COC(=O)NCC[n+]1ccccc1)OC (racemic) [Example 7a, 1-[2-[1-[(RS)-2-methoxy-3-(octadecylcarbamoyloxy)propoxy]formamido]ethyl]pyridinium chloride] | 2000 |
| CCCCCCCCCCCCCCCCCCNC(=O)OCC(COC(=O)OCC[n+]1ccccc1)OC (racemic) [Example 7b, 1-[2-[[[(RS)-2-methoxy-3-[(octadecylcarbamoyl)oxy]propoxy]carbonyl]oxy]ethyl]pyridinium bromide] | 1600 |
| CCCCCCCCCCCCCCCCCCOCC(COC(=O)CC[n+]1ccccc1)NC(=O)OC (racemic) [Example 15] | 3000 |
| CCCCCCCCCCCCCCCCCCNC(=O)OCC(COC(=O)CCC[n+]1ccsc1)OC (racemic) [Example 20b, 3-[3-[[(RS)-2-methoxy-3-[(octadecylcarbamoyl)oxy]propoxy]carbonyl]propyl]thiazolium chloride] | 250 |
| CCCCCCCCCCCCCCCCCCNC(=O)OCC(COC(=O)CCC[n+]1ccccc1)OC(=O)OC (racemic) [Example 21a, 1-[3-[[(RS)-2-[(methoxycarbonyl)oxy]-3-[(octadecylcarbamoyl)oxy]propoxy]carbonyl]propyl]pyridinium chloride] | 150 |
| CCCCCCCCCCCCCCCCCCNC(=O)OCC(COC(=O)CCC[n+]1ccsc1)NC(=O)OC (racemic) [Example 24, 1-[3-[[(RS)-2-(1-methoxyformamido)-3-(octadecylcarbamoyloxy)propoxy]carbonyl]propyl]thiazolium chloride] | 150 |
| CCCCCCCCCCCCCCCCCCOC(=O)NCC(COC(=O)CCC[n+]1ccccc1)OC(=O)OC (racemic) [Example 26, 1-[3-[[(RS)-2-[(methoxycarbonyl)oxy[-3-[1-(octadecyloxy)-formamido]propoxy]carbonyl]propyl]pyridinium chloride] | 400 |
| CCCCCCCCCCCCCCCCCCOC[C@H](COC(=O)CCC[n+]1ccccc1)OC(=O)NC [Example 1, 1-[3-[[(R)-2-[(methylcarbamoyl)oxy]-3-(octadecyloxy)propoxy]carbonyl]-propyl]pyridinium chloride] | 1600 |
| CCCCCCCCCCCCCCCCCCOC[C@H](COC(=O)OCC[n+]1ccccc1)OC(=O)NC [Example 3, 1-[2-[[[(R)-2-[(methylcarbamoyl)oxy]-3-(octadecyloxy)propoxy]carbonyl]oxy]ethyl]pyridinium bromide] | 3000 |
| CCCCCCCCCCCCCCCCCCOC[C@H](COC(=O)OCC[n+]1ccccc1)OC(=O)OC [Example 10, 1-[2-[[(R)-2-[(methoxycarbonyl)oxy]-3-(octadecyloxy)propoxy]carbonyl]oxy]ethyl]pyridinium bromide] | 3000 |
| CCCCCCCCCCCCCCCCCCNC(=O)OC[C@H](COC(=O)OCC[n+]1ccccc1)OC(=O)OC [Example 11, 1-[2-[[[(R)-2-[(methoxycarbonyl)oxy]-3-(octadecylcarbamoyl)oxy]propoxy]carbonyl]oxy]ethyl]pyridinium bromide] | 600 |
| CCCCCCCCCCCCCCCCCCOC[C@H](COC(=O)OCC[n+]1ccsc1)OC(=O)OC [Example 12, 3-[2-[[[(R)-2-[(methoxycarbonyl)oxy]-3-(octadecyloxy)propoxy]carbonyl]oxy]ethyl]thiazolium bromide] | 2000 |
| CCCCCCCCCCCCCCCCCCNC(=O)OC[C@@H](COC(=O)CCC[n+]1ccccc1)OC(=O)OC [Example 21b, 1-[3-[[(R)-2-[(methoxycarbonyl)oxy]-3-[(octadecylcarbamoyl)oxy]propoxy]carbonyl]propyl]pyridinium chloride] | 200 |
| CCCCCCCCCCCCCCCCCCNC(=O)OC[C@H](COC(=O)CCC[n+]1ccccc1)OC(=O)OC [Example 21d, 1-[3-[[(S)-2-[(methoxycarbonyl)oxy]-3-[(octadecylcarbamoyl)oxy]propoxy]carbonyl]propyl]pyridinium iodide] | 200 |
| CCCCCCCCCCCCCCCCCCNC(=O)OC[C@@H](COC(=O)CCC[n+]1ccsc1)OC(=O)OC [Example 21e, 3-[3-[[(R)-2-[(methoxycarbonyl)oxy]-3-[(octadecylcarbamoyl)oxy]propoxy]carbonyl]propyl]thiazolium iodide] | 40 |
| CCCCCCCCCCCCCCCCCCNC(=O)OC[C@H](COC(=O)CCC[n+]1ccsc1)OC(=O)OC [Example 21f, 3-[3-[[(S)-2-[(methoxycarbonyl)oxy]-3-[(octadecylcarbamoyl)oxy]propoxy]carbonyl]propyl]thiazolium iodide] | 60 |
